Consider two compounds from patent publication US20230157975A1, “TREATMENT OF PULMONARY FIBROSIS” (REGENALL LIMITED, priority 2020, published 2023).

Molecules are shown by their SMILES.

One assay concerns Tendon injury. In words: Tendon injury, recovery following treatment with Vitamin A (Example 3). The class given is in vivo. Conditions: Horse subject 1 (polo pony); oral 750,000 IU twice daily, at least 4 weeks; started approximately 20 days after injury. From the text: [table] Treatment with Vitamin A was initiated approximately 20 days after the initial injury. Retinyl palmitate (93.8% Retinol Equivalent) Oral 750,000 IU Twice daily (1,500,000 IU per day) Continuing (at least 4 weeks)

In assay [1] the test system is bleomycin-induced lung fibrosis. Conditions: rats; by downregulating the TGF-β1/Smad3 signalling pathway; cited from earlier work.

Turning to `CCCCCCCCCCCCCCCC(=O)OC/C=C(C)/C=C/C=C(C)/C=C/C1=C(C)CCCC1(C)C` [Vitamin A, Retinyl palmitate], in the assay on Tendon injury, the Functional recovery entry was “good” and the “Size of the lesion by ultrasonography” value was “good reduction in the size of the lesion”.

Take `CC1=C(/C=C/C(C)=C/C=C/C(C)=C/C(=O)O)C(C)(C)CCC1` [RA]: the “Effect on bleomycin-induced lung fibrosis” value in assay [1] is reported as “ameliorates bleomycin-induced lung fibrosis”.
